Assay results: patent US8877716B2, “Peptide derivatives, preparation and uses thereof” (Vect-Horus, priority 2010, dated 2014)

Tests used:
in vitro = conditions: blood
[1] = Demeule et al., 2008; cited from earlier work

For `CSCC[C@@H]1NC(=O)[C@H](N)CSSC[C@@H](C(=O)O)NC(=O)CNC(=O)[C@H](CCCNC(=N)N)NC(=O)[C@H](CC(C)C)NC(=O)[C@H](CCCNC(=N)N)NC(=O)[C@@H]2CCCN2C1=O` [SEQ ID NO: 17], the half-life (in vitro) was 3 h.
In the case of transferrin [Tf], the “Kin (cerebral transfer coefficient)” value [1] is listed as 0.0003 mL/s/g.
